Reference: US20030144360A1, “Composition and method for modulating BAR/FXR receptor activity” (Allergan Sales, Inc., priority 2001, published 2003)
“And” between values parts separate entries of the source, which are not always exact repeats. Equal entries are not always repeated. One block for each compound: values may come before it.

Tests used:
Gal-L-RAR = molecular target: T1, Gal-L-RAR (Homo sapiens, UniProt P10276); assay: Gal-L-RAR fusion with Gal 4 reporter (MH100×4) in CV-1 cells; format: cell-based; conditions: 5 μM
T1 construct: expressed in transfected cells; host or cells: CV-1
T1 sequence (P10276 156-462 limits assumed): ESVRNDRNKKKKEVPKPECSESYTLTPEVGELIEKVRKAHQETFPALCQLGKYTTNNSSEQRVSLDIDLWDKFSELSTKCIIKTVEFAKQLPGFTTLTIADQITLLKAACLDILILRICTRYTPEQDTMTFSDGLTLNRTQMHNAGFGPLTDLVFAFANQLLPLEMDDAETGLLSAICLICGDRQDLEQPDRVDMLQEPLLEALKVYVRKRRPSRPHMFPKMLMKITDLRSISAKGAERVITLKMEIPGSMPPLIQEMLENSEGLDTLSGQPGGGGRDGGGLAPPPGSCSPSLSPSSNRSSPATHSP

Gal-L-RXR = molecular target: T2, Gal-L-RXR (Homo sapiens, UniProt P19793); assay: Gal-L-RXR fusion with Gal 4 reporter (MH100×4) in CV-1 cells; format: cell-based; conditions: 5 μM
T2 construct: expressed in transfected cells; host or cells: CV-1
T2 sequence (P19793 203-462): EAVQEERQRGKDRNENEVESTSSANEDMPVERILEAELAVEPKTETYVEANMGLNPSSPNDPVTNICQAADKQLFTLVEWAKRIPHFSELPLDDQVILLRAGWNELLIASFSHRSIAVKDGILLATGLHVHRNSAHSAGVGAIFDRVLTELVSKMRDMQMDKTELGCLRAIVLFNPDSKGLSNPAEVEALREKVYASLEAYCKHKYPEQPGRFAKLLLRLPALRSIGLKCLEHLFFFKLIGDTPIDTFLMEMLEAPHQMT

[1] = tested on: AR, mPXR, hPXR, ERα, CARβ, LXRα, PPARα, PPARβ, PPARδ, VDR and TRβ; assay: Activation of other RXR heterodimers / nuclear receptors (transfection assay); format: cell-based
BAR:RXR heterodimer = molecular target: T3, BAR:RXR heterodimer (Homo sapiens, UniProt P19793+Q96RI1); assay: Mammalian two hybrid assay detecting recruitment of CoA; format: cell-based
T3 construct: expressed in transfected cells
T3 sequence (Q96RI1 1-486): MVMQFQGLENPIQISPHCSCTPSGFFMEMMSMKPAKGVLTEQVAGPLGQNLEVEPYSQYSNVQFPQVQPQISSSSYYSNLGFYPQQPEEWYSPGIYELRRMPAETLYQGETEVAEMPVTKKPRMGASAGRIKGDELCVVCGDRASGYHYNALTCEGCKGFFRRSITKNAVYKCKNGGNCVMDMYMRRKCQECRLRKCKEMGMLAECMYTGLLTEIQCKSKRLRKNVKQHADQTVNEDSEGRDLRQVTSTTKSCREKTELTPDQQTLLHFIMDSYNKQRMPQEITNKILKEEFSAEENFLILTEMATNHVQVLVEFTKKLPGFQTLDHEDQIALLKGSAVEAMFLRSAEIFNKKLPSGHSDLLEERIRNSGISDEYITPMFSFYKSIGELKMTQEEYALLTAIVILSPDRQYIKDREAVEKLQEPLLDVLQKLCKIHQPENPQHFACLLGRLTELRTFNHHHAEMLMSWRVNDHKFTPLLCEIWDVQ
T3 sequence (P19793 1-462): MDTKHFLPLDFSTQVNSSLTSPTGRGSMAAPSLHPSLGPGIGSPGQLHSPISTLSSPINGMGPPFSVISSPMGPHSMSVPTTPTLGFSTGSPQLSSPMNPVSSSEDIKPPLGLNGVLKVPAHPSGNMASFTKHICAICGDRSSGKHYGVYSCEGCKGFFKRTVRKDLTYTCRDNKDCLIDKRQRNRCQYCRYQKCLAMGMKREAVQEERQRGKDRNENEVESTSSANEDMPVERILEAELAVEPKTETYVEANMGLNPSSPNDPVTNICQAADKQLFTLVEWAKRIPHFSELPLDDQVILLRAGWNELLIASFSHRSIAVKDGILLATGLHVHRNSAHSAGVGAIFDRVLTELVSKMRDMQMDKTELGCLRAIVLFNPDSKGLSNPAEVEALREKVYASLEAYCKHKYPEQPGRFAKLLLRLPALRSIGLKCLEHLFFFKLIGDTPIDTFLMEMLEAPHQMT

MFXR / HRXRop = molecular target: T4, MFXR / HRXRop (UniProt P19793+Q60641); assay: Co-transfection luciferase assay, EcRE × 6 reporter, MFXR + HRXRop;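 further: CV-1 African green monkey cells, liposome transfection with a β-galactosidase vector serving as internal control, luciferase chemiluminescence read after roughly 40 h compound exposure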
T4 sequence (Q60641 1-488): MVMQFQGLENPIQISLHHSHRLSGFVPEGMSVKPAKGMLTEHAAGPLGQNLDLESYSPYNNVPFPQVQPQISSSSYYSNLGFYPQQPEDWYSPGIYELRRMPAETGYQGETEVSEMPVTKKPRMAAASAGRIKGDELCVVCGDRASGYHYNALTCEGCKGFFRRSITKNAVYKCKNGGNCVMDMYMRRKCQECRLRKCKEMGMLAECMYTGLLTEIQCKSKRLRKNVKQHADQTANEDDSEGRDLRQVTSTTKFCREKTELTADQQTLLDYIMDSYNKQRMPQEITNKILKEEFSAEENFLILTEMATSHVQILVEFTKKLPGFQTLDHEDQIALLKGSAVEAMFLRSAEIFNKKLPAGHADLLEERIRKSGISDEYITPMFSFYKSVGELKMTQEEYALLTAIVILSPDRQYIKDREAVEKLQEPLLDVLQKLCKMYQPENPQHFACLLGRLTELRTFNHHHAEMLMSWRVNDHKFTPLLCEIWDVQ
T4 sequence (P19793 1-462): T3 sequence (P19793 1-462)

Structure (SMILES): Cc1cc2c(cc1/C(=C/c1ccc(C(=O)O)cc1)[Si](C)(C)C)C(C)(C)CCC2(C)C [AGN 29, (Z)-4-[2-(3,5,5,8,8-Pentamethy1-5,6,7,8-tetrahydronaphthalen-2-yl)-2-(trimethylsilyl)vinyl]benzoic Acid]
activation of RAR (Gal-L-RAR): loss of specificity for RAR
activation of RXR (Gal-L-RXR): retained some ability to activate RXR
effect on other RXR heterodimers containing nuclear receptors [1]: no effect

activation of RAR (Gal-L-RAR): loss of specificity for RAR
activation of RXR (Gal-L-RXR): retained some ability to activate RXR
Structure (SMILES): CCCC/C(=C\c1ccc(C(=O)O)cc1)c1ccc2c(c1)C(C)(C)CCC2(C)C [AGN 31, 4-[2-(5,5,8,8-Tetramethyl-5,6,7,8-tetrahydronaphthalen-2-yl)hex-1-enyl]benzoic Acid]
effect on other RXR heterodimers containing nuclear receptors [1]: no effect

recruitment of CoA (BAR:RXR heterodimer): inhibits recruitment
Fold Activation (MFXR / HRXRop; 0.1 μM LG268 + 0.01 μM AGN 34): 27.08 fold
Reporter Activity (MFXR / HRXRop; 0.1 μM LG268 + 0.01 μM AGN 34): 6.73
Fold Activation (MFXR / HRXRop; 0.1 μM LG268 + 0.1 μM AGN 34): 1.56 fold
Reporter Activity (MFXR / HRXRop; 0.1 μM LG268 + 0.1 μM AGN 34): 0.39
Fold Activation (MFXR / HRXRop; 0.1 μM LG268 + 1 μM AGN 34): 1.07 fold
Reporter Activity (MFXR / HRXRop; 0.1 μM LG268 + 1 μM AGN 34): 0.27
Fold Activation (MFXR / HRXRop; 0.1 μM LG268 + 3 μM AGN 34): 1.04 fold
Reporter Activity (MFXR / HRXRop; 0.1 μM LG268 + 3 μM AGN 34): 0.26
Fold Activation (MFXR / HRXRop; 0.1 μM LG268 + 10 μM AGN 34): 1.18 fold
Reporter Activity (MFXR / HRXRop; 0.1 μM LG268 + 10 μM AGN 34): 0.29
Fold Activation (MFXR / HRXRop; 10 μM AGN 34 alone): 1.18 fold and 1.39 fold
Reporter Activity (MFXR / HRXRop; 10 μM AGN 34 alone): 0.26 and 0.35
Fold Activation (MFXR / HRXRop; 50 μM CDCA + 0.01 μM AGN 34): 19.61 fold
Reporter Activity (MFXR / HRXRop; 50 μM CDCA + 0.01 μM AGN 34): 4.37
Fold Activation (MFXR / HRXRop; 50 μM CDCA + 0.1 μM AGN 34): 10.99 fold
Reporter Activity (MFXR / HRXRop; 50 μM CDCA + 0.1 μM AGN 34): 2.45
Fold Activation (MFXR / HRXRop; 50 μM CDCA + 1 μM AGN 34): 6.19 fold and 5.26 fold
Reporter Activity (MFXR / HRXRop; 50 μM CDCA + 1 μM AGN 34): 1.38
Fold Activation (MFXR / HRXRop; 50 μM CDCA + 3 μM AGN 34): 5.77 fold
Reporter Activity (MFXR / HRXRop; 50 μM CDCA + 3 μM AGN 34): 1.29
Fold Activation (MFXR / HRXRop; 50 μM CDCA + 10 μM AGN 34): 6.11 fold
Reporter Activity (MFXR / HRXRop; 50 μM CDCA + 10 μM AGN 34): 1.36
Structure (SMILES): CCCCCCOc1c(\C(C)=C/C=C/C(C)=C/C(=O)O)cc(C(C)C)cc1C(C)C [AGN 34, (2E, 4E, 6Z)-7-(2-Hexyloxy-3,5-diisopropylphenyl)-3-methylocta-2,4,6-trienoic Acid]
